One assay has as its system NF-κB. As to the kind of experiment: NF-κB assay: THP1-NF-κB-LUC cells, LPS-stimulated secreted luciferase. The format is cell-based. To be noted: THP1-NF-κB-LUC cells, LPS-stimulated; read-out: IC50 (NF-κB assay). The essentials: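 THP1-NF-κB-LUC cells (25k/well) were pretreated with compounds for 2 h, then stimulated with LPS (10 ng/mL) for 18 h. Secreted luciferase was measured and normalized to vehicle, and IC50 was fitted from the concentration series.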

For the next assay, the system named is TNF release. As to the kind of experiment: TNF assay: TNF release from LPS-stimulated human PBMCs (TNF ELISA). The format is cell-based. The following applies: PBMC; LPS-stimulated human PBMCs, TNF ELISA; read-out: IC50 (TNF assay). The essentials: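 TNF ELISA on supernatants read-out; cells were 10k human PBMCs/well given LPS at 10 ng/mL for 18 h after a 2 h compound pre-incubation across a concentration series, with IC50 derived for suppression of TNF secretion.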
For orientation: In an ELISA, binding on a coated surface is turned into a signal by an enzyme label.

The values below come from patent publication US12606528B2, “Methods and materials for inhibiting NF-kB activity” (University of Pittsburgh - Of the Commonwealth System of …, priority 2019, dated 2026).

Each structure is given as a SMILES string.

A word on the IC50: it is the concentration needed to halve the response being measured.

`CCCS(=O)(=O)c1sc(-c2ccc(Cl)cc2)nc1S(=O)(=O)c1ccc(Cl)cc1` [BC19621]: the IC50 in the assay with NF-κB and with TNF release was 1 to 10 µM each time.
`CC(C)S(=O)(=O)c1sc(-c2ccc(Cl)cc2)nc1S(=O)(=O)c1ccc(Cl)cc1` [BC19622]: the IC50 in the assay with NF-κB and in the assay with TNF release was 1 to 10 µM each time.
Consider `O=S(=O)(c1ccc(Cl)cc1)c1nc(-c2ccc(Cl)cc2)sc1S(=O)(=O)C1CCCCC1` [BC19623], for which the IC50 with NF-κB and in the assay with TNF release was above 10 µM in each case.
On to `CCCS(=O)(=O)c1sc(-c2ccccc2)nc1S(=O)(=O)c1ccc(Cl)cc1` [BC19624], for which the IC50 in the assay with NF-κB and with TNF release was 1 to 10 µM throughout.
As for `COCCS(=O)(=O)c1sc(-c2ccccc2)nc1S(=O)(=O)c1ccc(Cl)cc1` [BC19625], the IC50 with NF-κB and in the assay on TNF release was 1 to 10 µM in each case.
Turning to `C[S+]([O-])c1sc(-c2ccccc2F)nc1S(=O)(=O)c1ccc(Cl)cc1` (stereo not drawn) [BC19626], the IC50 with NF-κB and in the assay with TNF release was 1 to 10 µM each time.
For `CCC[S+]([O-])c1sc(-c2ccccc2F)nc1S(=O)(=O)c1ccc(Cl)cc1` (stereo not drawn) [BC19627], the values for the IC50 with NF-κB and in the assay on TNF release were 1 to 10 µM and above 10 µM, respectively.
On the same counts, the results for `CCCS(=O)(=O)c1sc(-c2ccccc2F)nc1S(=O)(=O)c1ccc(Cl)cc1` [BC19628] are above 10 µM and above 10 µM.
`CC(C)[S+]([O-])c1sc(-c2ccccc2F)nc1S(=O)(=O)c1ccc(Cl)cc1` (stereo not drawn) [BC19629]: the concentration for half-maximal inhibition (IC50) with NF-κB and in the assay with TNF release was above 10 µM each time.
Regarding `CC(C)C[S+]([O-])c1sc(-c2ccccc2F)nc1S(=O)(=O)c1ccc(Cl)cc1` (stereo not drawn) [BC19630], the IC50 is above 10 µM with NF-κB and 1 to 10 µM in the assay on TNF release.
As to `CC(C)CS(=O)(=O)c1sc(-c2ccccc2F)nc1S(=O)(=O)c1ccc(Cl)cc1` [BC19631], the concentration for half-maximal inhibition (IC50) is 1 to 10 µM in the assay with NF-κB and above 10 µM in the assay with TNF release.
On the same counts, the results for `O=S(=O)(c1ccc(Cl)cc1)c1nc(-c2ccccc2F)sc1[S+]([O-])CC1CC1` (stereo not drawn) [BC19632] are above 10 µM and above 10 µM.
`O=S(=O)(CC1CC1)c1sc(-c2ccccc2F)nc1S(=O)(=O)c1ccc(Cl)cc1` [BC19633]: the IC50 with NF-κB and with TNF release was 1 to 10 µM each time.
Take `Cn1c(-c2ccccc2)nc(S(=O)(=O)c2ccc(F)cc2)c1S(=O)(=O)CC1CC1` [BC19634]: the IC50 in the assay with NF-κB and in the assay on TNF release was above 10 µM each time.
Consider `CC(C)[S+]([O-])c1sc(C2CCCCC2)nc1S(=O)(=O)c1ccc(Cl)cc1` (stereo not drawn) [BC19635], for which the IC50 in the assay with NF-κB and in the assay on TNF release was above 10 µM throughout.
Regarding `CC(C)S(=O)(=O)c1sc(C2CCCCC2)nc1S(=O)(=O)c1ccc(Cl)cc1` [BC19636], the IC50 with NF-κB and in the assay with TNF release was above 10 µM each time.
In the case of `CC(C)C[S+]([O-])c1sc(C2CCCCC2)nc1S(=O)(=O)c1ccc(Cl)cc1` (stereo not drawn) [BC19637], the IC50 with NF-κB and with TNF release was above 10 µM throughout.
On to `CC(C)CS(=O)(=O)c1sc(C2CCCCC2)nc1S(=O)(=O)c1ccc(Cl)cc1` [BC19638], for which the IC50 in the assay with NF-κB and in the assay on TNF release was above 10 µM throughout.
On to `O=S(=O)(CC1CC1)c1sc(C2CCCCC2)nc1S(=O)(=O)c1ccc(Cl)cc1` [BC19639], for which the IC50 with NF-κB and in the assay with TNF release was above 10 µM in each case.
Take `C[S+]([O-])c1sc(C2CCCCC2)nc1S(=O)(=O)c1ccc(Cl)cc1` (stereo not drawn) [BC19640]: the IC50 in the assay on NF-κB and with TNF release was above 10 µM throughout.
On to `CS(=O)(=O)c1sc(C2CCCCC2)nc1S(=O)(=O)c1ccc(Cl)cc1` [BC19641], for which the IC50 in the assay with NF-κB and in the assay with TNF release was above 10 µM each time.
As for `COCC[S+]([O-])c1sc(C2CCCCC2)nc1S(=O)(=O)c1ccc(Cl)cc1` (stereo not drawn) [BC19642], the IC50 in the assay with NF-κB and in the assay with TNF release was above 10 µM in each case.
On to `Cn1c(-c2ccccc2)nc(S(=O)(=O)c2ccc(F)cc2)c1[S+](C)[O-]` (stereo not drawn) [BC19644], for which the IC50 in the assay with NF-κB and in the assay on TNF release was above 10 µM each time.
In the case of `CCC[S+]([O-])c1sc(C2CCCCC2)nc1S(=O)(=O)c1ccc(Cl)cc1` (stereo not drawn) [BC19645], the 50% inhibitory concentration (IC50) in the assay on NF-κB and in the assay on TNF release was above 10 µM each time.
Turning to `CCCS(=O)(=O)c1sc(C2CCCCC2)nc1S(=O)(=O)c1ccc(Cl)cc1` [BC19646], the IC50 with NF-κB and in the assay on TNF release was above 10 µM throughout.
As for `O=S1(=O)CCCn2c(-c3ccccc3)nc(S(=O)(=O)c3ccc(Cl)cc3)c21` [BC19647], the IC50 with NF-κB is above 10 µM; with TNF release it was 1 to 10 µM.
Take `O=C1CCOc2c(cc(Br)cc2S(=O)(=O)Nc2ccc(OC(F)(F)F)cc2)N1` [BC19648]: the IC50 in the assay with NF-κB is below 0.1 µM; in the assay on TNF release, above 10 µM.
Take `O=C1CCOc2c(cc(Br)cc2S(=O)(=O)Nc2cccc(F)c2)N1` [BC19649]: the IC50 with NF-κB is below 0.1 µM; in the assay with TNF release it was above 10 µM.
For the molecule `O=C1CCOc2c(cc(Br)cc2S(=O)(=O)Nc2cccc(Cl)c2)N1` [BC19650], the figures for the IC50 with NF-κB and in the assay with TNF release were below 0.1 µM and above 10 µM, respectively.
With `Cc1ccc(NS(=O)(=O)c2cc(Br)cc3c2OCCC(=O)N3)cc1Cl` [BC19651], the IC50 in the assay on NF-κB was 0.1 to 1 µM; in the assay with TNF release, above 10 µM.
With `O=C1CCOc2cc(S(=O)(=O)Nc3ccc(OC(F)(F)F)cc3)c(Br)cc2N1` [BC19652], the concentration for half-maximal inhibition (IC50) in the assay with NF-κB was 1 to 10 µM; with TNF release, above 10 µM.
Take `Cc1ccc(NS(=O)(=O)c2cc3c(cc2Br)NC(=O)CCO3)cc1F` [BC19653]: the concentration for half-maximal inhibition (IC50) in the assay with NF-κB and with TNF release was above 10 µM throughout.
For the molecule `O=C1CCOc2cc(S(=O)(=O)Nc3cccc(F)c3)c(Br)cc2N1` [BC19654], the IC50 in the assay with NF-κB and in the assay with TNF release was above 10 µM in each case.
On to `O=C1CCOc2cc(S(=O)(=O)Nc3cccc(Cl)c3)c(Br)cc2N1` [BC19655], for which the IC50 in the assay on NF-κB and in the assay on TNF release was above 10 µM in each case.
For `O=C1CCOc2cc(S(=O)(=O)Nc3ccc(Cl)cc3)c(Br)cc2N1` [BC19656], the IC50 is 1 to 10 µM in the assay on NF-κB and above 10 µM in the assay with TNF release.
On the same counts, the results for `CCc1cccc(NS(=O)(=O)c2cc3c(cc2Br)NC(=O)CCO3)c1` [BC19657] are 1 to 10 µM and above 10 µM.
Regarding `O=C1CCOc2cc(S(=O)(=O)Nc3ccc(F)cc3Cl)c(Br)cc2N1` [BC19658], the half-maximal inhibitory concentration (IC50) in the assay on NF-κB and in the assay with TNF release was above 10 µM each time.
On to `Cc1ccc(NS(=O)(=O)c2cc3c(cc2Br)NC(=O)CCO3)cc1Cl` [BC19659], for which the IC50 in the assay with NF-κB and with TNF release was above 10 µM throughout.
Turning to `O=C1CCOc2cc(S(=O)(=O)Nc3ccc(F)cc3)c(Br)cc2N1` [BC19660], the IC50 with NF-κB and in the assay with TNF release was above 10 µM each time.
With `Cc1ccc(NS(=O)(=O)c2cc3c(cc2Br)NC(=O)CCO3)cc1` [BC19661], the IC50 with NF-κB and in the assay on TNF release was above 10 µM each time.
For the molecule `CN1CCN(C(=O)C2CCc3nc(-c4ccc(F)cc4)c(-c4ccc(F)cc4)nc3C2)CC1` (stereo not drawn) [BC19663], the values for the IC50 in the assay with NF-κB and with TNF release were 0.1 to 1 µM and above 10 µM, respectively.
On the same counts, the results for `OCCCn1c(-c2ccc3nc(-c4ccc(F)cc4)c(-c4ccc(F)cc4)nc3c2)n[nH]c1=S` [BC19664] are 0.1 to 1 µM and 0.1 to 1 µM.
In the case of `OCCCn1cnnc1-c1ccc2nc(-c3ccc(F)cc3)c(-c3ccc(F)cc3)nc2c1` [BC19665], the results for the IC50 in the assay on NF-κB and in the assay on TNF release were below 0.1 µM and 1 to 10 µM, respectively.
On the same counts, the results for `CN1CCN(C(=O)c2cc3nc(-c4ccc(F)cc4)c(-c4ccc(F)cc4)nc3cn2)CC1` [BC19666] are 0.1 to 1 µM and above 10 µM.
On the same counts, the results for `Cn1oc(-c2ccc3nc(-c4ccc(F)cc4)c(-c4ccc(F)cc4)nc3c2)cc1=O` [BC19667] are above 10 µM and above 10 µM.
As for `C/N=C(\c1ccc2nc(-c3ccc(F)cc3)c(-c3ccc(F)cc3)nc2c1)N1CCN(C)CC1` [BC19668], the IC50 in the assay on NF-κB is 0.1 to 1 µM; with TNF release, above 10 µM.
Take `C[S+]([O-])c1sc(-c2ccc3ccccc3c2)nc1S(=O)(=O)c1ccc(Cl)cc1` (stereo not drawn) [BC19671]: the results for the IC50 in the assay on NF-κB and in the assay with TNF release were 1 to 10 µM and below 0.1 µM, respectively.
Regarding `CS(=O)(=O)c1sc(-c2ccc3ccccc3c2)nc1S(=O)(=O)c1ccc(Cl)cc1` [BC19672], the IC50 in the assay with NF-κB lay within 1 to 10 µM; in the assay on TNF release it was 0.1 to 1 µM.
The corresponding values for `CCC[S+]([O-])c1sc(-c2ccc3ccccc3c2)nc1S(=O)(=O)c1ccc(Cl)cc1` (stereo not drawn) [BC19673] are 1 to 10 µM and above 10 µM.
Consider `CCCS(=O)(=O)c1sc(-c2ccc3ccccc3c2)nc1S(=O)(=O)c1ccc(Cl)cc1` [BC19674], for which the IC50 was 1 to 10 µM with NF-κB and above 10 µM with TNF release.
For the molecule `CC(C)C[S+]([O-])c1sc(-c2ccc3ccccc3c2)nc1S(=O)(=O)c1ccc(Cl)cc1` (stereo not drawn) [BC19675], the IC50 in the assay on NF-κB and in the assay with TNF release was 1 to 10 µM in each case.
Turning to `O=S(=O)(CC1CC1)c1sc(-c2ccc3ccccc3c2)nc1S(=O)(=O)c1ccc(Cl)cc1` [BC19676], the IC50 in the assay on NF-κB is 1 to 10 µM; in the assay with TNF release it was above 10 µM.
The corresponding values for `COCC[S+]([O-])c1sc(-c2ccc3ccccc3c2)nc1S(=O)(=O)c1ccc(Cl)cc1` (stereo not drawn) [BC19677] are 1 to 10 µM and 1 to 10 µM.
The corresponding values for `COCCS(=O)(=O)c1sc(-c2ccc3ccccc3c2)nc1S(=O)(=O)c1ccc(Cl)cc1` [BC19678] are 1 to 10 µM and 1 to 10 µM.
On the same counts, the results for `COCC[S+]([O-])c1sc(-c2cccnc2)nc1S(=O)(=O)c1ccc(Cl)cc1` (stereo not drawn) [BC19679] are 1 to 10 µM and 0.1 to 1 µM.
Turning to `CCCSc1snc(-c2ccc(F)cc2)c1S(=O)(=O)c1ccc(Cl)cc1` [BC19680], the IC50 in the assay on NF-κB and in the assay on TNF release was above 10 µM in each case.
For `CCC[S+]([O-])c1snc(-c2ccc(F)cc2)c1S(=O)(=O)c1ccc(Cl)cc1` (stereo not drawn) [BC19681], the IC50 in the assay on NF-κB is 0.1 to 1 µM; in the assay with TNF release, below 0.1 µM.
